Experimental data: patent US7713994B2 (Wyeth LLC, priority 2005, dated 2010)
pIC50: −log10 of the molar value. Where two headings read alike, the source gives them in different places.

Tests used:
[1] = target: T1, cyclin D1/cdk 4 enzyme (Homo sapiens, UniProt P11802); experiment: CDK4 ELISA kinase assay (phospho-Rb ser 795 detection); format: biochemical
T1 construct: made in house; host or cells: Sf9 insect cells, recombinant baculovirus
Outline: (§1)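 Inhibition was derived from A450 relative to control wells lacking compound, following an anti-phospho-Rb Ser795 sandwich of HRP detection. The reactions combined coated GST-Rb fragment, 200 μM ATP and baculovirus-expressed cyclin/CDK enzymes, incubated for 1 h at 30° C.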

[2] = target: T2, cyclin E/CDK2 enzyme (Homo sapiens, UniProt P24941); experiment: CDK2 ELISA kinase assay (phospho-Rb ser 795 detection); format: biochemical
T2 construct: made in house; host or cells: Sf9 insect cells, recombinant baculovirus
Outline: as §1

[3] = target: T3, cyclin B/CDK1 enzyme (Homo sapiens, UniProt P06493); experiment: CDK1 ELISA kinase assay (phospho-Rb ser 795 detection); format: biochemical
T3 construct: purchased New England BioLabs; host or cells: Sf9 insect cells, recombinant baculovirus
Outline: as §1

[4] = system: BT474; experiment: Cytotoxicity assay (SRB), BT474; format: cell-based
Outline: (§2)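 Overnight-seeded monolayers (4000–12000 cells/well by line) receive compound in 5% FBS medium at 37 °C, 7% CO2. After 3 d, or 6 d for BT474, cellular protein is fixed with cold TCA, stained with SRB and read at 540 nm against untreated wells.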

[5] = system: HCT-116; experiment: Cytotoxicity assay (SRB), HCT-116; format: cell-based; conditions: HCT116 cells, SRB, read-out: In Vitro Cellular Activity IC50 HCT116
Outline: as §2

[6] = system: LoVo; experiment: Cytotoxicity assay (SRB), LoVo; format: cell-based; conditions: LoVo cells, SRB, read-out: In Vitro Cellular Activity IC50 LOVO
Outline: as §2

[7] = system: MCF-7; experiment: Cytotoxicity assay (SRB), MCF-7; format: cell-based; conditions: MCF-7 cells, SRB, read-out: In Vitro Cellular Activity IC50 MCF-7
Outline: as §2

[8] = In Vitro Enzyme Assay, cyclin D1/cdk 4, read-out: CDK4 IC50
[9] = In Vitro Enzyme Assay, cyclin E/CDK2, read-out: CDK2 IC50
[10] = In Vitro Enzyme Assay, cyclin B/CDK1, read-out: CDK1 IC50
[11] = Homo sapiens, BT-474, 144 h, BT474 cells, 6 days, SRB; read-out: In Vitro Cellular Activity IC50 BT474
[12] = Homo sapiens, HCT-116, 72 h, 3 days
[13] = Homo sapiens, LoVo, 72 h, 3 days
[14] = Homo sapiens, MCF7, 72 h, 3 days
[15] = In Vitro Enzyme Assays, 200 μM ATP, read-out: CDK4 IC50
[16] = In Vitro Enzyme Assays, read-out: CDK2 IC50
[17] = In Vitro Enzyme Assays, read-out: CDK1 IC50
[18] = Homo sapiens, BT-474, 144 h, BT474 cells, SRB, 6 days; read-out: In Vitro Cellular Activity IC50 BT474
[19] = Homo sapiens, HCT-116, 72 h, three days
[20] = Homo sapiens, LoVo, 72 h, three days
[21] = Homo sapiens, MCF7, 72 h, three days

T3 sequence (P06493 whole entry): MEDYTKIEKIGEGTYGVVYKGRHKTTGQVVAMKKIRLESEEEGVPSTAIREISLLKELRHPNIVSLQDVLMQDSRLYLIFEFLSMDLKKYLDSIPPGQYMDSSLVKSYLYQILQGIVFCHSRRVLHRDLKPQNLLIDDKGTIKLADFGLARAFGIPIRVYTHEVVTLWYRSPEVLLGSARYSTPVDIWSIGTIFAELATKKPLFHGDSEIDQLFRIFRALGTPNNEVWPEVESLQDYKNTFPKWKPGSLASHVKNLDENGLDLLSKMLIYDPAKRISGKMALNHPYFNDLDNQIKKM
T3 sequence (P14635 whole entry partner): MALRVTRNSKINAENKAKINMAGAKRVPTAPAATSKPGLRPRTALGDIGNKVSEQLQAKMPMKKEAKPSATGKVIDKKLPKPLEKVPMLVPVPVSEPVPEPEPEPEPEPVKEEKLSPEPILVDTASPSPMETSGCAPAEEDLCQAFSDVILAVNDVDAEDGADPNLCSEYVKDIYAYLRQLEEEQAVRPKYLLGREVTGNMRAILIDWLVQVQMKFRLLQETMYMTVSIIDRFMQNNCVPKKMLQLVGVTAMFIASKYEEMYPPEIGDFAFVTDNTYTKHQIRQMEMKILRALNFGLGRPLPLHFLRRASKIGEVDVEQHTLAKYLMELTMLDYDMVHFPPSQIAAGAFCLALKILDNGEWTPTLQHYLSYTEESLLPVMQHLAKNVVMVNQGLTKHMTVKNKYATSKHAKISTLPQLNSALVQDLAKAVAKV
T1 sequence (P11802 whole entry, species assumed): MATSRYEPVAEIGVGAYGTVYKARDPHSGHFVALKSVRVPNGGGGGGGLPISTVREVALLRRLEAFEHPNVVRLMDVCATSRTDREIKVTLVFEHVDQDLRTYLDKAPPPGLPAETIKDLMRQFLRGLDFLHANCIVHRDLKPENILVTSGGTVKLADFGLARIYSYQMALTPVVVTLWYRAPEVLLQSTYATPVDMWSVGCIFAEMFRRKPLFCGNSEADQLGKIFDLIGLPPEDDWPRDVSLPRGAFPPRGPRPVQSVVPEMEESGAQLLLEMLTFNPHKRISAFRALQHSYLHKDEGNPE
T1 sequence (P24385 whole entry partner, species assumed): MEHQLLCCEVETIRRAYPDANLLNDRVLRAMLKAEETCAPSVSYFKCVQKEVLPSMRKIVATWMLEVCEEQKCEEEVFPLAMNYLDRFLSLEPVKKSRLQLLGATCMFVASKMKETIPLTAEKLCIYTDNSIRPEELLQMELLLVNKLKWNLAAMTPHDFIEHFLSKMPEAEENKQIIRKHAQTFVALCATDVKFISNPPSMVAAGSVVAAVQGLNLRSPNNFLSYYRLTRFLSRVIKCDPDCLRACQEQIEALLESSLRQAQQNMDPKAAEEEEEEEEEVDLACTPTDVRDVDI

Row | Molecule | pIC50 [1, 8] | pIC50 [2, 9] | pIC50 [3, 10] | pIC50 [4, 11] | pIC50 [5, 12] | pIC50 [6, 13] | pIC50 [7, 14] | further results
1 | O=C1NC(=O)c2ccc(-c3ccc(Cl)cc3)cc2C1=CNCc1ccc(O)c(O)c1 [Example 778, 6-(4-Chloro-phenyl)-4-[(3,4-dihydroxy-benzylamino)-methylene]-4H-isoquinoline-1,3-dione] | 6.92 | 5.25 | 4.56 | 4.56 | 4.92 | 5.02 | 4.99 | 
2 | CN1CCN(c2ccc(N/C=C3\C(=O)NC(=O)c4ccc(-c5ccoc5)cc43)c(F)n2)CC1 [Example 457, (4Z)-4-({[2-Fluoro-6-(4-methylpiperazin-1-yl)pyridin-3-yl]amino}methylene)-6-(3-furyl)isoquinoline-1,3(2H,4H)-dione] | 6.72 | 4.71 | 4.62 |  |  |  |  | pIC50 ([4]; BT474 cells, 6 days, SRB; read-out: In Vitro Cellular Activity IC50 BT474): 5.80; pIC50 ([5]; 3 days): 6.02; pIC50 ([6]; 3 days): 6.00; pIC50 ([7]; 3 days): 5.68
3 | CN1CCN(c2ccc(NC=C3C(=O)NC(=O)c4ccc(-c5ccn(CCCC#N)c5)cc43)cc2)CC1 [Example 855, 4-[3-(4-{[4-(4-Methyl-piperazin-1-yl)-phenylamino]-methylene}-1,3-dioxo-1,2,3,4-tetrahydro-isoquinolin-6-yl)-pyrrol-1-yl]-butyronitrile] | 6.51 | < 4.30 | < 4.30 | 4.36 | < 4.30 | < 4.30 | 4.37 | 
4 | CN1CCN(c2ccc(N/C=C3\C(=O)NC(=O)c4ccc(-c5ccc(OC(F)(F)F)cc5)cc43)cc2)CC1 [Example 298, (4Z)-4-({[4-(4-Methylpiperazin-1-yl)phenyl]amino}methylene)-6-[4-(trifluoromethoxy)phenyl]isoquinoline-1,3(2H,4H)-dione] |  |  |  |  |  |  |  | pIC50 [1, 15]: 4.54; pIC50 [2, 16]: < 4.30; pIC50 [3, 17]: 4.39; pIC50 [4, 18]: 5.20; pIC50 [5, 19]: 5.68; pIC50 [6, 20]: 5.01; pIC50 [7, 21]: 5.55
5 | CCCCc1ccc(CN/C=C2\C(=O)NC(=O)c3ccc(I)cc32)cc1O [Example 495, 4-[(4-Butyl-3-hydroxy-benzylamino)-methylene]-6-iodo-4H-isoquinoline-1,3-dione] | 6.52 | < 4.30 | < 4.30 | 5.35 | 5.31 | 5.20 | 5.48 | 
6 | PEG5000thio-acetic acid 5-{[(6-iodo-1,3-dioxo-2,3-dihydro-1H-isoquinolin-4-ylidenemethyl)-amino]-methyl}-2-propoxy-phenyl ester [Example 292] |  |  |  |  |  |  |  | pIC50 [1, 15]: ~5.82; pIC50 [2, 16]: ~4.47; pIC50 [3, 17]: ~4.71; pIC50 ([4]; BT474 cells, SRB, 6 days; read-out: In Vitro Cellular Activity IC50 BT474): ~6.05; pIC50 ([5]; three days): ~5.92; pIC50 ([6]; three days): ~5.92; pIC50 ([7]; three days): ~5.19
7 | N#Cc1cccc(-c2ccc3c(c2)C(=CNCc2ccc(O)c(O)c2)C(=O)NC3=O)c1 [Example 785, 3-{4-[(3,4-Dihydroxy-benzylamino)-methylene]-1,3-dioxo-1,2,3,4-tetrahydro-isoquinolin-6-yl}-benzonitrile] | 5.92 | 4.42 | < 4.30 | < 4.30 | < 4.30 | < 4.30 | 4.34 | 
8 | COc1ccc(-c2ccc3c(c2)C(=CNCc2ccc(OC)c(O)c2)C(=O)NC3=O)cc1 [Example 833, 4-[(3-Hydroxy-4-methoxy-benzylamino)-methylene]-6-(4-methoxy-phenyl)-4H-isoquinoline-1,3-dione] | 8.00 | 4.82 | < 4.30 | 4.60 | 4.77 | 4.72 | 4.58 | 
9 | CC(C)CC(=O)Nc1ccc(CN/C=C2\C(=O)NC(=O)c3ccccc32)cc1 [Example 593, N-(4{[(1,3-Dioxo-2,3-dihydro-1H-isoquinolin-4-ylidenemethyl)-amino]-methyl}-phenyl)-3-methyl-butyramide] | < 4.30 | < 4.30 | 4.35 | 4.58 | 4.86 | 4.45 | 4.59 | 
10 | O=C1NC(=O)c2ccc(-c3cccc4cccnc34)cc2C1=CNCc1ccc(O)c(O)c1 [Example 642, 4-[(3,4-Dihydroxy-benzylamino)-methylene]-6-quinolin-8-yl-4H-isoquinoline-1,3-dione] | 6.00 | 4.55 | < 4.30 | 4.85 | 4.69 | 4.92 | 4.90 | 
11 | CN(C)CCOc1ccc(N/C=C2\C(=O)NC(=O)c3ccc(Br)cc32)cc1 [Example 258, (4Z)-6-Bromo-4-[({4-[2-(dimethylamino)ethoxy]phenyl}amino)methylene]isoquinoline-1,3(2H,4H)-dione] |  |  |  |  |  |  |  | pIC50 [1, 15]: 6.32; pIC50 [2, 16]: < 4.30; pIC50 [3, 17]: < 4.30; pIC50 [4, 18]: 5.08; pIC50 [5, 19]: 5.46; pIC50 [6, 20]: 5.28; pIC50 [7, 21]: 5.17
12 | CN(CCN1CCCC1)c1ccc(N/C=C2\C(=O)NC(=O)c3ccc(Br)cc32)cc1 [Example 864, (4Z)-6-Bromo-4-[({4-[methyl(2-pyrrolidin-1-ylethyl)amino]phenyl}amino)methylene]isoquinoline-1,3(2H,4H)-dione] | 5.60 | < 4.30 | < 4.30 | 5.10 | 5.51 | 5.42 | 5.44 | 
13 | O=C1NC(=O)c2ccc(I)cc2/C1=C/Nc1ccc(N2CCN(Cc3ccco3)CC2)cc1 [Example 389, (4Z)-4-[({4-[4-(2-Furylmethyl)piperazin-1-yl]phenyl}amino)methylene]-6-iodoisoquinoline-1,3(2H,4H)-dione] |  |  |  |  |  |  |  | pIC50 [1, 15]: 5.78; pIC50 [2, 16]: < 4.30; pIC50 [3, 17]: < 4.30; pIC50 [4, 18]: < 4.30; pIC50 [5, 19]: 4.64; pIC50 [6, 20]: < 4.30; pIC50 [7, 21]: 4.54
14 | CN1CCN(c2ncc(N/C=C3\C(=O)NC(=O)c4ccc(I)cc43)cn2)CC1 [Example 475, (4Z)-6-Iodo-4-({[2-(4-methylpiperazin-1-yl)pyrimidin-5-yl]amino}methylene)isoquinoline-1,3(2H,4H)-dione] | 6.15 | < 4.30 | < 4.30 | 5.09 | 5.49 | 5.11 | 5.66 | 
15 | CCN1CCCC1c1ccc(N/C=C2\C(=O)NC(=O)c3ccc(I)cc32)cc1 (centres unmarked) [Example 465, 4-{[4-(1-Ethyl-pyrrolidin-2-yl)-phenylamino]-methylene}-6-iodo-4H-isoquinoline-1,3-dione] | 6.74 | 4.66 | < 4.30 | 5.42 | 5.54 | 5.30 | 5.89 | 
16 | NS(=O)(=O)c1ccc(CNC=C2C(=O)NC(=O)c3ccc(-c4cc[nH]c4)cc32)cc1 [Example 639, 4-({[1,3-Dioxo-6-(1H-pyrrol-3-yl)-2,3-dihydro-1H-isoquinolin-4-ylidenemethyl]-amino}-methyl)-benzenesulfonamide] | 5.04 | 4.71 | < 4.30 | 4.73 | < 4.30 | < 4.30 | 4.59 | 
17 | CCCCOc1ccc(CN/C=C2\C(=O)NC(=O)c3ccc(Br)cc32)cc1O [Example 148, (4Z)-6-Bromo-4-{[(4-butoxy-3-hydroxybenzyl)amino]methylene}isoquinoline-1,3(2H,4H)-dione] |  |  |  |  |  |  |  | pIC50 [1, 15]: 6.36; pIC50 [2, 16]: 4.50; pIC50 [3, 17]: < 4.30; pIC50 [4, 18]: 4.80; pIC50 [5, 19]: 4.74; pIC50 [6, 20]: 4.66; pIC50 [7, 21]: 4.60
